Source: patent US20050053625A1, “Method of treating viral infections” (priority 2001, published 2005)

Columns and labels:
[1] = system: 2.2.15 cells; assay: Selectivity index (CC90/IC90), MHBs secretion and MTT on 2.2.15 cells; format: cell-based
Description: Selectivity index and cytotoxicity assessment. The concentration of compound needed to reduce the amount of MHBs present in the culture medium (of MHBs producing cells) by 90%, relative to untreated or placebo treated controls will be considered to be the IC90 (inhibitory concentration, 90). The toxicity of the compounds to the tissue cultures will initially be determined the MTT assay, as described in (Lu et al., 1997). Briefly, the amount of MTT enzyme functional in the same sets of cells used for determination of the ability of a compound to reduce the secretion of MHBs (see above) will be measured. Thus, the impact of a compound upon cell viability will be assessed in the same cells in which MHBs reductions have been determined. The concentration of compound that results in a reduction of MTT activity (compared to untreated cultures) of 90% will be considered to be the CC90. The selectivity index will be expressed as the CC90 divided by the IC90. Using these criteria, as determined by assays on 2.2.15 cells under the conditions described in prelim. evidence, the selectivity index of NNDNJ is approximate 100. Thus, compounds will be considered attractive if they have a selectivity index of greater than 100.

[2] = system: glucosidase; conditions: cited from earlier work
[3] = rat, in vivo
Experimental: Based upon the toxicology data obtained from a 14 day rat study on N-nonyl-DNJ, the toxicity with the alkovirs is predicated to be minimal. With N-nonyl-DNJ, toxicity primarily consisted of GI upset as a result of inhibiting the gut α-glucosidase enzymes involved in carbohydrate digestion. It should be noted that even though toxicity was observed, the maximum tolerated dose was determined to be 250 mg/kg bid. This was well above the amount required to achieve serum drug concentrations that were anti-viral.

[4] = design: species or system dogs; conditions: dog, in vivo
Experimental: Determination of the best glucosidase inhibitor and analysis of glucosidase inhibition. Although our work, confirmed by others, has shown that efficient secretion of the HBV glycoprotein MHBs and LHBs requires the function of the ER glucosidase, the specific glucosidase inhibitor that would be most sensible to use in vivo studies is not entirely obvious. […] However, NNDNJ has a dose limiting toxicity in dogs. Although this occurred at very high doses (more than 250 mg/kg), and we believe the toxicity was unrelated to the glucosidase inhibition mechanism), it seems wise to explore the possibility of alternative glucosidase inhibitors for the proposed study. Thus, Aim 1 will be to explore the possibility that other compounds, with less toxicity can be found. […] It is therefore an attractive back up compound. Thus, although NNDNJ could be used in the proposed studies as a “stalking horse” and for a proof of concept, it will be “parked” (held in reserve) as we test other glucosidase inhibitors in our portfolio. Identification of the most appropriate glucosidase inhibitor

[5] = system: HBV M protein; format: cell-based
Experimental: Hep G2 cells were transfected with an M only expression vector and the next day the cells divided equally into 6 well trays. Compound was added one day latter at the indicated concentrations and the media changed every two days. The presence of sub-viral particles in the medium was detected via the Abbott Diagnostics Auszyme Monoclonal Diagnostic Kit as per manufacture's directions. For Graph: Y-axis is the OD at 492. X-axis indicates the compounds or cells used in the assay.
Hep G2 cells transfected with the HBV M expression vector were treated with the glucosidase inhibitor NB-DNJ (4.5 mM and 6 days latter the amount of M protein associated with the culture medium (secreted) and the cells (retained) determined by ELISA. See text for more details. For graph: x-axis, Drug treatment and location of protein; for y-axis, % of HBV M protein as compared to untreated
Hep G2 cells were transfected with the M only expression vector and seeded as daughter flasks into 6 well trays. Following 4 days of treatment of glucosidase inhibitor (NB-DNJ (4.5 mM)), drug was either removed (in samples labels as —R) or left on as a control. Day 0 is the time in which drug was removed. […] Day 3 and Day 5 are days after drug removal. For Graph: Y-axis is the OD at 492. X-axis indicates the compounds or cells used in the assay. UN=untreated sample; Un-R is the untreated rebound sample; NB=N-butyl-DNJ; NB-R=N-butyl-DNJ rebound sample.
HBV M protein secretion is sensitive to glucosidase inhibition. Our previous work has determined that the secretion of HBV sub-viral particles containing the M protein was sensitive to glucosidase inhibition. (Mehta et al., 1997). That is, when Hep G2 2.215 cells were treated with the glucosidase inhibitor NB-DNJ, purified sub-viral particles appeared to lack the M protein. However, it was unclear if this was the result of the M protein's sensitivity to glucosidase inhibition or required some other viral factor. To test this hypothesis, an expression vector (pCMV-MS^−X) directs the expression of HBV M, but no other viral protein, was created. This “M only” expression vector was then used to determine if the M protein itself, in the absence of other viral functions, was sensitive to glucosidase inhibition. In addition, an expression vector, unable to express “M”, but able to express “S” was made on the same plasmid backbone as the “M” only vector, as was used as a control (pCMV-M^−SX). For these studies three imino sugars were used: N-butyl-DNJ, N-nonyl-DNJ and N-nonyl-DGJ. N-butyl-DNJ is our standard glucosidase inhibitor and has been used by several labs for over 10 years (Carlson et al.,1995, Block et al., 1994). […] Briefly, Hep G2 cells were transfected with the expression vectors pCMV HBV MS^−X and pCMV HBV M^−SX and subsequently seeded into fresh 6 well trays. The transfected cells were treated with the indicated concentrations of NB-DNJ, NN-DNJ or NN-DGJ (as a negative control) and three days latter the media analyzed for the presence of the HBV M or HBV S protein as described in Mehta et al, 2001. […] Fore example, concentrations of NN-DNJ which have no impact upon glycan inhibition, as determined by glycan analysis or α-1-acid-glycoprotein secretion, had no effect upon HBV M protein secretion (data not shown). In contrast to the effect of the glucosidase inhibitors on M protein secretion, the secretion of the HBV S protein was insensitive to either NB-DNJ or NN-DNJ providing further proof that the S protein is insensitive to glucosidase inhibition (data not shown; Block et al., 1994, Mehta et al., 1997, Werr & Prange, 1998). To determine if the secretion of the HBV M protein was prevented by another non-glucosidase mechanism, other compounds with the same alkyl side chain (tail) but altered imino sugar head groups, were synthesized. For example, NN-DGJ has the same chain length as NN-DNJ but is not a glucosidase inhibitor. […]

[6] = system: glucosidase; assay: Glucosidase / glycan processing inhibition in cells; format: cell-based; conditions: 10 μg/ml
[7] = system: liver cells; conditions: cited from earlier work

CCCCCCCCCN1C[C@H](O)[C@@H](O)[C@H](O)[C@H]1CO [NN-DNJ, 1,5-dideoxy-1,5-nonylylimino-D-glucitol]
selectivity index (CC90 divided by IC90) [1]: ~100
inhibit glucosidase [2]: 15-20%
maximum tolerated dose [3]: 250 mg/kg bid
toxicity observed [3]: GI upset
dose at which dose limiting toxicity occurred [4]: more than 250 mg/kg
amount of M protein in the culture medium ([5]; 10 μg/ml): almost undetectable levels
HBV M protein secretion at concentrations with no impact upon glycan inhibition ([5]; concentrations which have no impact upon glycan inhibition, data not shown): no effect
secretion of the M protein ([5]; indicated concentrations, three days, FIG. 4): prevented the secretion of the M protein
inhibits glycan processing [6]: 15-20%
uptake by liver cells [7]: preferentially taken up by liver cells
